According to patent US12319663B2, “Alkene-containing amide compound and application thereof” (SHENYANG SINOCHEM AGROCHEMICALS R&D CO., LTD., priority 2019, dated 2025):

Legend:
Assay type in all cases: in vivo
zinnia = test: Herbicidal activity, post-emergence stem and leaf spray, greenhouse: zinnia control; conditions: visual, 0 = no control effect, 100% = complete killing
Method: (§1) Seeds of broadleaf weeds (zinnia and piemarker) or grassy weeds (green bristlegrass and barnyard grass) are respectively sown in a paper cup having a diameter of 7 cm and containing nutrient soil; after sowing, the seeds are covered with 1 cm of soil; the soil is pressed and watered, and then the seeds are cultivated in a greenhouse according to a conventional method; and stems and leaves are sprayed after 2-3 leaf stage of the weeds.
(§2) After the original medicinal acetone was dissolved, the test requires to use 1% of Tween 80 to stand in running water to prepare the solution to be tested with a required concentration. According to the design dose of the test, spray treatment was carried out on a track-type crop sprayer (designed and produced by British Engineer Research Ltd.) (spray pressure is 1.95 kg/cm^2, spray volume is 50 L/hm^2 and track speed is 1.48 km/h). The test was repeated for three times. The test material was treated and then placed in an operation hall. The medicinal liquid was naturally dried in the shade, and then was placed in a greenhouse and managed according to the conventional method, The response of the weeds to the drug was observed and recorded, After treatment, the control effects of the test drug on the weeds were visually inspected regularly, expressed by 0-100%. “0” represents no control effect and “100%” represents complete killing.
According to the above test method, part of the compounds of the formula I and KC are selected for activity test of controlling the zinnia.

piemarker = test: Herbicidal activity, post-emergence stem and leaf spray, greenhouse: piemarker control
Method: as §1, §2
According to the above test method, part of the compounds of the formula I and KC are selected for activity test of controlling the piemarker. […]

barnyard grass = test: Herbicidal activity, post-emergence stem and leaf spray, greenhouse: barnyard grass control
Method: as §1, §2
According to the above test method, part of the compounds of the formula I and KC are selected for the activity test of controlling the barnyard grass.

green bristlegrass = test: Herbicidal activity, post-emergence stem and leaf spray, greenhouse: green bristlegrass control
Method: as §1, §2
According to the above test method, part of the compounds of the formula I and KC are selected for the activity test of controlling the green bristlegrass.

[1] = dose 37.5 g a.i./hm2, post-emergence stem and leaf spray
[2] = dose 150 g a.i./hm2, post-emergence stem and leaf spray
[3] = dose 600 g a.i./hm2, post-emergence stem and leaf spray

Row | SMILES | Zinnia control activity (after emergence, control effect %) (zinnia; dose 37.5 g a.i./hm^2) [%] | Zinnia control activity (after emergence, control effect %) (zinnia; dose 150 g a.i./hm^2) [%] | Zinnia control activity (after emergence, control effect %) (zinnia; dose 600 g a.i./hm^2) [%] | Piemarker control activity (after emergence, control effect %) (piemarker; [1]) [%] | Piemarker control activity (after emergence, control effect %) (piemarker; [2]) [%] | Piemarker control activity (after emergence, control effect %) (piemarker; [3]) [%] | Barnyard grass control activity (after emergence, control effect %) (barnyard grass; [1]) [%] | Barnyard grass control activity (after emergence, control effect %) (barnyard grass; [2]) [%] | Barnyard grass control activity (after emergence, control effect %) (barnyard grass; [3]) [%] | Green bristlegrass control activity (after emergence, control effect %) (green bristlegrass; [1]) [%] | Green bristlegrass control activity (after emergence, control effect %) (green bristlegrass; [2]) [%] | Green bristlegrass control activity (after emergence, control effect %) (green bristlegrass; [3]) [%]
1 | Cn1nnnc1N(C(=O)/C=C/c1ccccc1)C(=O)c1ccc(C(F)(F)F)cc1S(C)(=O)=O [Compound 1-1] | 100 | 100 | 100 | 100 | 100 | 100 | – | – | – | – | – | –
2 | Cn1nnnc1N(C(=O)/C=C/c1ccc2c(c1)OCO2)C(=O)c1ccc(C(F)(F)F)cc1S(C)(=O)=O [Compound 1-8] | 90 | 95 | 100 | 100 | 100 | 100 | – | – | – | – | – | –
3 | Cc1c(S(C)(=O)=O)ccc(C(=O)N(C(=O)/C=C/c2ccccc2)c2nnnn2C)c1Cl [Compound 1-19] | 95 | 95 | 100 | 90 | 90 | 98 | – | – | – | – | – | –
4 | COCc1c(S(C)(=O)=O)ccc(C(=O)N(C(=O)/C=C/c2ccccc2)c2nnnn2C)c1Cl [Compound 1-24] | 100 | 100 | 100 | 100 | 100 | 100 | 95 | 95 | 100 | – | – | –
5 | COc1c(S(C)(=O)=O)ccc(C(=O)N(C(=O)/C=C/c2ccccc2)c2nnnn2C)c1C [Compound 1-95] | 100 | 100 | 100 | – | – | – | – | – | – | – | – | –
6 | Cc1c(C(=O)N(C(=O)/C=C/c2ccccc2)c2nnnn2C)ccc(S(C)(=O)=O)c1OCC1CCCO1 (stereo not drawn) [Compound 1-100] | – | – | – | – | – | – | 100 | 100 | 100 | – | – | –
7 | CCCOc1c(S(C)(=O)=O)ccc(C(=O)N(C(=O)/C=C/c2ccccc2)c2nnnn2C)c1C [Compound 1-296] | – | – | – | – | – | – | 100 | 100 | 100 | – | – | –
8 | Cc1c(C(=O)N(C(=O)C2=CCCCC2)c2nnnn2C)ccc(S(C)(=O)=O)c1OCC(F)(F)F [Compound 2-13] | 100 | 100 | 100 | – | – | – | 80 | 100 | 100 | – | – | –
9 | Cc1c(C(=O)N(C(=O)C2=CCCC2)c2nnnn2C)ccc(S(C)(=O)=O)c1OCC(F)(F)F [Compound 2-15] | 100 | 100 | 100 | – | – | – | 85 | 100 | 100 | 90 | 100 | 100
10 | COCCOc1c(S(C)(=O)=O)ccc(C(=O)N(C(=O)C2=CCCCC2)c2nnnn2C)c1C [Compound 2-19] | – | – | – | – | – | – | 90 | 100 | 100 | – | – | –
11 | Cc1c(S(C)(=O)=O)ccc(C(=O)N(C(=O)C2=CCCCC2)c2nnnn2C)c1Cl [Compound 2-97] | 100 | 100 | 100 | 95 | 100 | 100 | 90 | 95 | 100 | 80 | 95 | 100
12 | COCc1c(S(C)(=O)=O)ccc(C(=O)N(C(=O)C2=CCCCC2)c2nnnn2C)c1Cl [Compound 2-103] | 90 | 95 | 100 | 95 | 100 | 100 | 80 | 90 | 100 | 80 | 90 | 95
13 | COCc1c(S(C)(=O)=O)ccc(C(=O)N(C(=O)C2=CCCC2)c2nnnn2C)c1Cl [Compound 2-105] | – | – | – | – | – | – | 90 | 90 | 100 | – | – | –
14 | COCc1c(S(C)(=O)=O)ccc(C(=O)N(C(=O)C2CC=CC2)c2nnnn2C)c1Cl [Compound 2-106] | 100 | 100 | 100 | – | – | – | – | – | – | – | – | –
15 | Cn1nnnc1N(C(=O)C1=CCCCC1)C(=O)c1ccc(C(F)(F)F)cc1S(C)(=O)=O [Compound 2-265] | 95 | 100 | 100 | 90 | 95 | 95 | 95 | 95 | 95 | 80 | 90 | 95
16 | Cn1nnnc1N(C(=O)C1=CCCC1)C(=O)c1ccc(C(F)(F)F)cc1S(C)(=O)=O [Compound 2-266] | 95 | 98 | 100 | 90 | 95 | 100 | 85 | 90 | 95 | 90 | 95 | 100
17 | Cn1nnnc1N(C(=O)C1=CCCCC1)C(=O)c1ccc(S(C)(=O)=O)cc1Cl [Compound 2-269] | – | – | – | 90 | 95 | 100 | 80 | 90 | 95 | – | – | –
18 | COCCOCc1c(S(C)(=O)=O)ccc(C(=O)N(C(=O)C2=CCCCC2)c2nnnn2C)c1Cl [Compound 2-270] | – | – | – | 90 | 98 | 100 | 90 | 95 | 100 | 90 | 95 | 98
